Paper PMC5408257, “Bioactive Metabolites from the Deep Subseafloor Fungus Oidiodendron griseum UBOCC-A-114129” (Marine Drugs, 2017)

Molecular target: T1, CDC2-like kinase-1 (CLK1) (Mus musculus, UniProt P22518)
T1 construct: Recombinant GST-CLK1
Assay: radiometric kinase assay with […] [gamma-33P] ATP, dose-response (n = […])
Type: biochemical

T1 sequence (P22518 whole entry): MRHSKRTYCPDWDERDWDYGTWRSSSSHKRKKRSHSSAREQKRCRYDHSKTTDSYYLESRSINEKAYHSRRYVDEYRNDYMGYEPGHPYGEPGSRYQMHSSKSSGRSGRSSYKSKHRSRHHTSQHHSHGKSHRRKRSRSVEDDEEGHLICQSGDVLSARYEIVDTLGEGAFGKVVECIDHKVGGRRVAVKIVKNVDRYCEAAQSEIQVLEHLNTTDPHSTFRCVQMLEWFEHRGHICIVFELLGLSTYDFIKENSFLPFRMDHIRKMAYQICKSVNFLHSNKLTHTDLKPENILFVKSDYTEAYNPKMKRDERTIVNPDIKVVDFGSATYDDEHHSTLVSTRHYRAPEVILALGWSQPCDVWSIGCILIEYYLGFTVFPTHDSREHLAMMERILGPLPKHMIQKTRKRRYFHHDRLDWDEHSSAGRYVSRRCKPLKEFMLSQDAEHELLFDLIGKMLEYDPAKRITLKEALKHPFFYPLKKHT

## CC(C)=CCc1c(O)c(O)c(O)c2c1CC(=O)OC2C (stereo not shown) [compound 3, dihydrosecofuscin]
  IC50: 56.1 µM
